Like-named read-outs stand apart in the source and are kept apart here.
Tested on: parasite
Test: Parasite LDH growth assay (Parasite Assay), antiparasite potency
Type: cell-based
Conditions: parasite LDH growth assay, ring stage parasites, 72 hours incubation at 37° C., read-out: EC50
Method: Assessing Antiparasite Potency in a Parasite LDH Growth Assay (Parasite Assay)
The parasite stock was maintained at 4% haematocrit in RPMI-Hepes media buffered with sodium bicarbonate and supplemented with 5% heat inactivated human serum and 0.5% albumax.
On the day of assay set up, a blood smear of the parasite culture was Giemsa stained and counted. The parasitemia was adjusted to 0.7% rings and the haematocrit was diluted to 2% in RPMI-Hepes media buffered with sodium bicarbonate and supplemented with 5% heat inactivated human serum and 0.5% albumax. 30 ul of diluted parasites are then added into 10 ul of media+compound in pre-prepared Greiner TC assay plates. Parasite assay plates were placed in gassed humidified boxes in single layer and allowed to incubate at 37° C. for 72 hours. After 72 hours growth, assay plates are sealed with parafilm and frozen flat, in single file at −80° C. overnight. On the following day, assay plates are allowed to thaw at room temperature for 4 hours to which an LDH assay is performed to measure parasite growth.

Row | Structure (SMILES) | EC50 (72 h) [nM] | EC50 [nM]
1 | CCC1(CC)CC(=O)N([C@H]2c3cc(C(=O)N[C@@H]4c5ccccc5C[C@H]4O)ccc3OC[C@@H]2C)C(=N)N1 [Example 120, (3R,4R)-4-(4,4-diethyl-2-imino-6-oxo-hexahydropyrimidin-1-yl)-N-[(1R,2R)-2-hydroxyindan-1-yl]-3-methyl-chromane-6-carboxamide] | 0.8 | 
2 | CC[C@]1(C)CC(=O)N([C@@H]2CCc3ccc(C(=O)N[C@@H]4c5ccccc5OC(C)(C)[C@H]4O)cc32)C(=N)N1 [Example 121, (3R)-3-[(4R)-4-ethyl-2-imino-4-methyl-6-oxo-hexahydropyrimidin-1-yl]-N-[(3S,4R)-3-hydroxy-2,2-dimethyl-chroman-4-yl]indane-5-carboxamide] | 0.6 | 
3 | CC[C@]1(C)CC(=O)N([C@@H]2C[C@@H](C)c3ccc(C(=O)N[C@@H]4c5ccccc5OC[C@@]4(C)O)cc32)C(=N)N1 [Example 131, (1R,3R)-3-[(4R)-4-ethyl-2-imino-4-methyl-6-oxo-hexahydropyrimidin-1-yl]-N-[(3S,4R)-3-hydroxy-3-methyl-chroman-4-yl]-1-methyl-indane-5-carboxamide] | 2 | 
4 | C[C@@H]1Cc2ccc(C(=O)N[C@@H]3c4ccccc4OC(C)(C)[C@H]3O)cc2[C@@H]1N1C(=N)NC(C)(C)CC1=O [Example 135, (2R,3R)-N-[(3S,4R)-3-hydroxy-2,2-dimethyl-chroman-4-yl]-3-(2-imino-4,4-dimethyl-6-oxo-hexahydropyrimidin-1-yl)-2-methyl-indane-5-carboxamide] | 0.9 | 
5 | C[C@@H]1C[C@@H](N2C(=N)NC(C)(C)CC2=O)c2cc(C(=O)N[C@@H]3c4ccccc4OC(C)(C)[C@H]3O)ccc21 [Example 138, (1R,3R)-N-[(3S,4R)-3-hydroxy-2,2-dimethyl-chroman-4-yl]-3-(2-imino-4,4-dimethyl-6-oxo-hexahydropyrimidin-1-yl)-1-methyl-indane-5-carboxamide] | 0.9 | 
6 | CCC1(CC)CC(=O)N([C@@H]2CCOc3ccc(C(=O)N[C@@H]4c5ccccc5C5(CC5)[C@H]4O)cc32)C(=N)N1 [Example 154, (4R)-4-(4,4-diethyl-2-imino-6-oxo-hexahydropyrimidin-1-yl)-N-[(1′R,2′R)-2′-hydroxyspiro[cyclopropane-1,3′-indane]-1′-yl]chromane-6-carboxamide] | 0.7 | 
7 | CCC1(CC)CC(=O)N([C@@H]2C[C@H](OC)c3ccc(C(=O)N[C@@H]4c5ccccc5C[C@@]4(C)O)cc32)C(=N)N1 [Example 158, (1S,3R)-3-(4,4-diethyl-2-imino-6-oxo-hexahydropyrimidin-1-yl)-N-[(1R,2R)-2-hydroxy-2-methyl-indan-1-yl]-1-methoxy-indane-5-carboxamide] | 0.9 | 
8 | CCC1(CC)CC(=O)N([C@@H]2CCc3ccc(C(=O)N[C@@H]4c5ccccc5OC(C)(C)[C@H]4O)cc32)C(=N)N1 [Example 159, (3R)-3-(4,4-diethyl-2-imino-6-oxo-hexahydropyrimidin-1-yl)-N-[(3S,4R)-3-hydroxy-2,2-dimethyl-chroman-4-yl]indane-5-carboxamide] | 0.5 | 
9 | CCC1(CC)CC(=O)N(C2CCCc3ccc(C(=O)N[C@@H]4c5ccccc5OC[C@@]4(C)O)cc32)C(=N)N1 (stereo partly drawn) [Example 161, 8-(4,4-diethyl-2-imino-6-oxotetrahydropyrimidin-1(2H)-yl)-N-((3S,4R)-3-hydroxy-3-methylchroman-4-yl)-5,6,7,8-tetrahydronaphthalene-2-carboxamide] | 0.8 | 
10 | CC[C@]1(C)CC(=O)N([C@H]2c3cc(C(=O)N[C@@H]4c5ccccc5OC(C)(C)[C@H]4O)ccc3C[C@H]2C)C(=N)N1 [Example 168, (2R,3R)-3-[(4R)-4-ethyl-2-imino-4-methyl-6-oxo-hexahydropyrimidin-1-yl]-N-[(3S,4R)-3-hydroxy-2,2-dimethyl-chroman-4-yl]-2-methyl-indane-5-carboxamide] | 0.4 | 
11 | CC[C@]1(C)CC(=O)N([C@H]2c3cc(C(=O)N[C@@H]4c5ccccc5OC(C)(C)[C@H]4O)ccc3C[C@@H]2C)C(=N)N1 [Example 169, (2S,3R)-3-[(4R)-4-ethyl-2-imino-4-methyl-6-oxo-hexahydropyrimidin-1-yl]-N-[(3S,4R)-3-hydroxy-2,2-dimethyl-chroman-4-yl]-2-methyl-indane-5-carboxamide] | 0.3 | 
12 | CC[C@]1(C)CC(=O)N([C@@H]2C[C@@H](C)c3ccc(C(=O)N[C@@H]4c5ccccc5OC(C)(C)[C@H]4O)cc32)C(=N)N1 [Example 171, (1R,3R)-3-[(4R)-4-ethyl-2-imino-4-methyl-6-oxo-hexahydropyrimidin-1-yl]-N-[(3S,4R)-3-hydroxy-2,2-dimethyl-chroman-4-yl]-1-methyl-indane-5-carboxamide] | 0.7 | 
13 | CC1(C)CC(=O)N([C@@H]2CCOc3ccc(C(=O)N[C@@H]4c5ccccc5OC(C)(C)[C@@]4(C)O)cc32)C(=N)N1 [Example 172, (4R)-N-[(3S,4R)-3-hydroxy-2,2,3-trimethyl-chroman-4-yl]-4-(2-imino-4,4-dimethyl-6-oxo-hexahydropyrimidin-1-yl)chromane-6-carboxamide] | 0.9 | 
14 | CCC1(CC)CC(=O)N([C@@H]2CCOc3ccc(C(=O)NC4c5ccccc5OC4(C)CO)cc32)C(=N)N1 (stereo partly drawn) [Example 176B, (4R)-4-(4,4-diethyl-2-imino-6-oxo-hexahydropyrimidin-1-yl)-N-[2-(hydroxymethyl)-2-methyl-3H-benzofuran-3-yl]chromane-6-carboxamide] |  | 7.8
15 | CC1(C)CC(=O)N([C@H]2c3cc(C(=O)N[C@@H]4c5ccccc5OC(C)(C)[C@H]4O)ccc3OC2(C)C)C(=N)N1 [Example 182, (3S)-N-[(3S,4R)-3-hydroxy-2,2-dimethyl-chroman-4-yl]-3-(2-imino-4,4-dimethyl-6-oxo-hexahydropyrimidin-1-yl)-2,2-dimethyl-3H-benzofuran-5-carboxamide] | 6.1 | 
16 | COC1COc2ccc(C(=O)N[C@@H]3c4ccccc4OC[C@@]3(C)O)cc2C1N1C(=N)NC(C)(C)CC1=O (stereo partly drawn) [Example 186, N-[(3S,4R)-3-hydroxy-3-methyl-chroman-4-yl]-4-(2-imino-4,4-dimethyl-6-oxo-hexahydropyrimidin-1-yl)-3-methoxy-chromane-6-carboxamide] | 70 | 
17 | CC1(C)CC(=O)N([C@@H]2CCOc3ccc(C(=O)N[C@@H]4c5cc(F)ccc5OC(C)(C)[C@H]4O)cc32)C(=N)N1 [Example 189, (4R)-N-[(3S,4R)-6-fluoro-3-hydroxy-2,2-dimethyl-chroman-4-yl]-4-(2-imino-4,4-dimethyl-6-oxo-hexahydropyrimidin-1-yl)chromane-6-carboxamide] | 1 | 
18 | CC[C@]1(C)CC(=O)N([C@@H]2CCOc3ccc(C(=O)NC4c5c(F)cccc5OCC4(C)O)cc32)C(=N)N1 (stereo partly drawn) [Example 193B, (4R)-4-[(4R)-4-ethyl-2-imino-4-methyl-6-oxo-hexahydropyrimidin-1-yl]-N-(5-fluoro-3-hydroxy-3-methyl-chroman-4-yl)chromane-6-carboxamide] |  | 0.8
19 | CCC1(CC)CC(=O)N([C@@H]2CCOc3ccc(C(=O)NC(c4ccccc4)c4ccccc4)cc32)C(=N)N1 [Example 194, (4R)-N-benzhydryl-4-(4,4-diethyl-2-imino-6-oxo-hexahydropyrimidin-1-yl)chromane-6-carboxamide] | 0.9 | 
20 | CC1(C)CC(=O)N([C@@H]2CC(F)(F)c3ccc(C(=O)N[C@@H]4c5ccccc5OC(C)(C)[C@H]4O)cc32)C(=N)N1 [Example 199, (3R)-1,1-difluoro-N-[(3S,4R)-3-hydroxy-2,2-dimethyl-chroman-4-yl]-3-(2-imino-4,4-dimethyl-6-oxo-hexahydropyrimidin-1-yl)indane-5-carboxamide] | 1.1 | 
21 | CC[C@]1(C)CC(=O)N([C@H]2c3cc(C(=O)N[C@@H]4c5ccccc5C[C@@]4(C)O)ccc3OC[C@@H]2COC)C(=N)N1 [Example 202, (3S,4R)-4-[(4R)-4-ethyl-2-imino-4-methyl-6-oxo-hexahydropyrimidin-1-yl]-N-[(1R,2R)-2-hydroxy-2-methyl-indan-1-yl]-3-(methoxymethyl)chromane-6-carboxamide] | 0.8 | 
22 | CCC1(CC)CC(=O)N([C@@H]2C[C@@H](OC)c3ccc(C(=O)N[C@@H]4c5ccccc5OC[C@@]4(C)O)cc32)C(=N)N1 [Example 203, (1R,3R)-3-(4,4-diethyl-2-imino-6-oxo-hexahydropyrimidin-1-yl)-N-[(3S,4R)-3-hydroxy-3-methyl-chroman-4-yl]-1-methoxy-indane-5-carboxamide] | 5.9 | 
23 | CCC1(CC)CC(=O)N(C2c3cc(C(=O)N[C@@H]4c5ccccc5C[C@]4(C)O)ccc3OCC2OC)C(=N)N1 (stereo partly drawn) [Example 213, 4-(4,4-diethyl-2-imino-6-oxo-hexahydropyrimidin-1-yl)-N-[(1R,2S)-2-hydroxy-2-methyl-indan-1-yl]-3-methoxy-chromane-6-carboxamide] | 9 | 
24 | CCC1(CC)CC(=O)N([C@H]2CCS(=O)(=O)c3ccc(C(=O)N[C@@H]4c5ccccc5C[C@H]4O)cc32)C(=N)N1 [Example 223, (4S)-4-(4,4-diethyl-2-imino-6-oxo-hexahydropyrimidin-1-yl)-N-[(1R,2R)-2-hydroxyindan-1-yl]-1,1-dioxo-3,4-dihydro-2H-thiochromene-6-carboxamide] | 300 | 
25 | CC[C@]1(C)CC(=O)N([C@@H]2CCOc3ccc(C(=O)N[C@@H]4c5cc(F)ccc5OC(C)(C)[C@H]4O)cc32)C(=N)N1 [Example 224, (4R)-4-[(4R)-4-ethyl-2-imino-4-methyl-6-oxo-hexahydropyrimidin-1-yl]-N-[(3S,4R)-6-fluoro-3-hydroxy-2,2-dimethyl-chroman-4-yl]chromane-6-carboxamide] | 0.3 | 
